Patent US20040192686A1, “Benzoazine mono-N-oxides and benzoazine 1,4 dioxides and compositions therefrom for the therapeutic use in cancer treatments” (Auckland Uniservices Limited, priority 2003, published 2004)
Values after ≈ are worked out from the molar mass of the structure shown.

Assays:
Solubility of SR 4317 = format: physicochemical
[1] = tested on: HT29 colon carcinoma cells; experiment: IC50 assay of potentiator alone, HT29 cells, 4 hr anoxic exposure, sulphorhodamine B staining; format: cell-based, human; conditions: Homo sapiens, HT-29, 4 hr exposure under anoxic conditions, cell density by sulphorhodamine B five days after washing out
[2] = tested on: hypoxic (radioresistant) cells in HT29 tumours; experiment: HT29 tumour xenograft excision assay: clonogenic survivors 18 hr after radiation and drug; format: in vivo, mice
Description: Animals with subcutaneous tumours (ca 300 mg) received whole body radiation (RAD; 20 Gy) to sterilise oxygenated tumour cells. Activity of drugs against the hypoxic survivors was determined by intraperitoneal administration of solutions in 5% DMSO/saline 5 min after radiation, using TPZ alone (133 μmol/kg) or in combination with SR 4317 (1000 μmol/kg). Tumours were excised 18 hr after treatment, dissociated enzymatically, and plated to determine the number of clonogenic survivors. Values are geometric means and error bars are standard errors of the mean. Horizontal lines show historical values for untreated controls and radiation only (solid lines are means, dashed lines are 95% confidence limits. p values were determined by one-way ANOVA using only data within this experiment.
The utility of SR 4317 as a potentiator of the hypoxic cytotoxicity of TPZ was assessed in an in vivo model (HT29 tumour xenografts) as illustrated in FIG. 7. In this experiment tumour response was determined by excising tumours 18 hr after treatment and quantifying the number of clonogenic survivors by plating in vitro. TPZ was administered at a sub-efficacious dose (0.133 mmol/kg), 5 minutes after whole body radiation (20 Gy). […] No significant cytotoxicity was observed when the two compounds were administered in the absence of irradiation, indicating lack of activity against aerobic cells in tumours (FIG. 7).

[3] = Approximate solubility limit in Alpha MEM culture medium containing 5% fetal calf serum; format: physicochemical; conditions: plasma or biological fluid, kinetic from dmso stock, dilution from DMSO stock solutions
HT29 cells [4] = experiment: TPZ potentiation test: IC50 of TPZ with and without potentiator, anoxic HT29 cells; format: cell-based, human; conditions: conc of potentiator 0.5 mM; 4 hr anoxic exposure of HT29 cells
[5] = Plasma pharmacokinetics after intraperitoneal administration; format: in vivo, CD-1 mice
Description: The plasma pharrmacokinetics of SR 4317 and TPZ were determined in C3H mice, alone and in combination (FIG. 6), to assess whether therapeutic concentrations of SR 4317 can be achieved in mice.

HT-29 MCLs = format: in vitro ADME, human
Description: Compounds are added to the donor compartment, along with ^14C-urea as an internal standard, and diffusion into the receiver compartment is monitored by HPLC and scintillation counting.
The concentrations in the Receiver compartment (normalised against the initial concentration in the Donor compartment) are plotted against those of the flux marker ^14C-urea to account for small differences in thickness of the MCLs. The fitted diffusion coefficients for TPZ (n=12) and SR 4317 (n=2) are: […] cm^2 sec^−1, respectively.
The inventors have also investigated the extravascular transport properties (tissue diffusion characteristics) of SR 4317 to assess whether it can diffuse well enough to reach hypoxic cells in tumours efficiently. This study used the multicellular layer (MCL) assay (Hicks et al., Int. J. Radiat. Oncol., Biol., Phys., 1998, 42, 641; Hicks et al., J. Pharmacol. Exper. Ther., 2001, 297, 1088), developed in this laboratory.

[6] = tested on: HT29 human colon carcinoma cells; experiment: Cytotoxicity (plating efficiency) in stirred single cell suspensions of HT29 cells, anoxic or aerobic; conditions: for Potentiation of the aerobic cytotoxicity of TPZ: HT29 cells, gas phase 5% CO2 in air
Description: Cultures were maintained at <10 ppm O2 under a continuously-flowing stream of 5% CO2 in nitrogen and were sampled at intervals to determine plating efficiency.
Experimental conditions were as for FIG. 2, except that the gas phase was 5% CO2 in air. Values are means and error bars are ranges for duplicate cultures.
Drug exposure time was 1 hr. Error bars represent the range for duplicate determinations.

HT29 cells [7] = experiment: Radiosensitisation of anoxic HT29 cells; format: cell-based, human; conditions: 0.6 mM of each agent; anoxic HT29 cells irradiated 5 min after drug addition
Description: Anoxic cell suspensions were irradiated 5 min after addition of pre-equilibrated anoxic drug solutions. Data are shown for duplicate determinations, and are fitted using a linear-quadratic model

With `Nc1nc2ccccc2[n+]([O-])n1` [Compound 3, 1,2,4-Benzotriazin-3-amine 1-oxide] the solubility (Solubility of SR 4317; aqueous solution, read-out: Aqueous solubility) was ~800 µM (≈ 130 µg/mL), the solubility (Solubility of SR 4317; as stated for the HT29 cell suspension experiment (FIG. 1), read-out: Solubility limit) was ~1000 µM (≈ 162 µg/mL) and the IC50 [1] was > 500 µM. For the same compound, the “Activity of radiation + TPZ + SR 4317 compared with radiation alone” value ([2]; SR 4317 1 mmol/kg added to TPZ 0.133 mmol/kg after 20 Gy, p<0.01 by one way ANOVA) was “greater than radiation alone”, the “Difference between radiation+TPZ and radiation+TPZ+SR 4317” value ([2]; SR 4317 1 mmol/kg, TPZ 0.133 mmol/kg, 20 Gy, p <0.05) was “significant” and the solubility [3] was 800 µM (≈ 130 µg/mL). The “TPR (TPZ potentiation ratio) = TPZ IC50 without potentiator/TPZ IC50 with potentiator” value (HT29 cells [4]) was 2.0, the “Maximum SR 4317 concentration in plasma” value ([5]; after intraperitoneal co-administration of TPZ + SR 4317 (750 μmol/kg), mice) was ~200 µM and the “Plasma concentrations in mice” value ([5]; general statement) was “relatively low”. For the same compound, the Clearance from plasma ([5]; over the first two hours after co-administration of TPZ and SR 4317, mice) was “slow clearance”, the “Transport through hypoxic MCLs” value (HT-29 MCLs) was “faster than for TPZ” and the “Potentiation of the cytotoxicity of TPZ to hypoxic tumour cells” value ([6]; HT29 cells in culture, anoxic (<10 ppm O2), TPZ 30 μM, simultaneous exposure) was “increased quite markedly”. For the same compound, the “Potentiation of the aerobic cytotoxicity of TPZ” value ([6]; listed as SR 4317) was “does not potentiate”, the “Potentiation of the aerobic cytotoxicity of TPZ” value ([6]; listed as SR4317) was “lack of potentiation” and the “Potentiation of TPZ cytotoxicity” value ([6]; SR 4317 at 100 μM for 1 hr, TPZ 30 μM, anoxic HT29 cells) was “significant potentiation”. The “Relative dose potency for potentiation of the hypoxic cytotoxicity of TPZ” value ([6]; TPZ 30 μM, anoxic HT29 cells 5×10^5/ml, drug exposure 1 hr) was “SR 4317>metronidazole=misonidazole”, the “Toxicity of SR4317 alone” value ([6]; anoxic HT29 suspension, 5×10^5 cells/ml, up to its solubility limit (ca 1 mM)) was “non-toxic” and the “Relative potency for radiosensitization of hypoxic HT29 cells” value (HT29 cells [7]) was “misonidazole>metronidazole=SR4317”.
